Experimental data taken from ChEMBL document CHEMBL5390301, “Fragment-Based Screening Identifies New Quinazolinone-Based Inositol Hexakisphosphate Kinase (IP6K) Inhibitors” (ACS Med Chem Lett, 2023).

Columns and labels:
[1] = molecular target: T1, Inositol hexakisphosphate kinase 2 (Homo sapiens, UniProt Q9UHH9); assay: Inhibition of IP6K2 (unknown origin) incubated for 2 hrs in presence of ATP by ADPGlo reagent based assay
T1 sequence (Q9UHH9 whole entry): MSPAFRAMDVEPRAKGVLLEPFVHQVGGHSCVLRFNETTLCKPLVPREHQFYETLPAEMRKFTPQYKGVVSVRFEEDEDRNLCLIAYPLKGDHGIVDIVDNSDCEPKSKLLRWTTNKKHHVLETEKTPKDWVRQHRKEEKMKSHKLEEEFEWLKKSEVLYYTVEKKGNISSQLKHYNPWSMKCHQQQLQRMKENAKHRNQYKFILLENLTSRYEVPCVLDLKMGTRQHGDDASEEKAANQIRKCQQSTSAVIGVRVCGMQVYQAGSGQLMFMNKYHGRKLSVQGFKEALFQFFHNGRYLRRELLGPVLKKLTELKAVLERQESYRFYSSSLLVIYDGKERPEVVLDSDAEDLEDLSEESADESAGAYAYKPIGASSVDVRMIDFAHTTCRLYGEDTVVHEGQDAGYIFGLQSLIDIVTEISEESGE

[2] = molecular target: Inositol hexakisphosphate kinase 1 (Homo sapiens, UniProt Q92551); assay: Inhibition of IP6K1 (unknown origin) incubated for 30 min in presence of ATP by ADPGlo reagent based assay
Chain of Inositol hexakisphosphate kinase 1 (Q92551 whole entry): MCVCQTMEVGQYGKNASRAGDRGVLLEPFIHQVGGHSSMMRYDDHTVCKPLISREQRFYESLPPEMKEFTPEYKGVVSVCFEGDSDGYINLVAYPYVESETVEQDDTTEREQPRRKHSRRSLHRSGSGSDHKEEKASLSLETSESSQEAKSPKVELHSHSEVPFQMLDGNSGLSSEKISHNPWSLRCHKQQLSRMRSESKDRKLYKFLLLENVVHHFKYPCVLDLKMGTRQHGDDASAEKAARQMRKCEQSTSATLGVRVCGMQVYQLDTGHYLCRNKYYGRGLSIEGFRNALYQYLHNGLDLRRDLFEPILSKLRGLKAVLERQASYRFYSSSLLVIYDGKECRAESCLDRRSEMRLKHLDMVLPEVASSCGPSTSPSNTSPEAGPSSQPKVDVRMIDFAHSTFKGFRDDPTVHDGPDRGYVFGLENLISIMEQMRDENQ

[3] = Selectivity index, ratio of IC50 for IP6K2 (unknown origin) to ratio of IC50 for IP6K3 (unknown origin)

Structure (SMILES) | IC50 [2] [µM] | also measured
O=c1[nH]cnc2ccc(C#Cc3ccccc3)cc12 | – | IC50 [1]: 96.3 µM
O=c1[nH]cnc2ccc(OCc3ccccc3)cc12 | 13.3 | –
O=c1[nH]cnc2ncc(/C=C/c3ccccc3)cc12 | 118 | –
Cc1nc2ccc(/C=C/c3ccccc3)cc2c(=O)[nH]1 | 85.3 | –
O=c1[nH]cnc2ccc(CCc3ccccc3)cc12 | – | IC50 [1]: 51.5 µM
Cc1nc2ccc(N3CCCC3)cc2c(=O)[nH]1 | > 200 | –
O=S1(=O)NC=Nc2ccc(N3CCCC3)cc21 | > 200 | –
Nc1cc2nc[nH]c(=O)c2cc1N1CCCC1 | 34.3 | –
Nc1cc2nc[nH]c(=O)c2cc1N1Cc2ccccc2C1 | 0.757 | –
O=c1[nH]cnc2ccc([N+]3=Cc4ccccc4CC3)cc12 | 2.88 | –
O=c1[nH]cnc2ccc(NCc3ccccc3)cc12 | 30.7 | –
O=c1[nH]cnc2cnc(N3CCCC3)cc12 | 94.4 | –
O=c1[nH]cnc2ccc(/C=C/c3ccccc3)cc12 | – | IC50 [1]: 193 µM
c1cc2c(cc1N1CCCC1)CNCC2 | > 200 | –
O=c1[nH]cnc2ccc([N+]3=Cc4ccccc4CCC3)cc12 | 45.2 | –
Cn1cnc2ccc(/C=C/c3ccccc3)cc2c1=O | 112 | –
CN1CCN(c2ccc3nc[nH]c(=O)c3c2)CC1 | > 200 | –
CN(Cc1ccccc1)c1ccc2nc[nH]c(=O)c2c1 | 15.4 | –
Nc1ncnc2ccc(N3CCCC3)cc12 | 48.9 | –
O=c1[nH]cnc2ccc(N3CCCC3)cc12 | – | IC50 [1]: > 200 µM

Structure (SMILES) | IC50 [2] [µM] | also measured
N#Cc1cc(N2CCCC2)cc2c(=O)[nH]cnc12 | – | IC50 [1]: 28.8 µM
O=C1CCNc2ccc(/C=C/c3ccccc3)cc21 | > 200 | –
Nc1cc(N2CCCC2)cc2c(=O)[nH]cnc12 | 189 | –
O=c1[nH]cnc2ccc(N3CCCC3)c(Cl)c12 | > 200 | –
O=c1[nH]cnc2ccc(/C=C/c3ccccn3)cc12 | 32.4 | –
O=c1[nH]cnc2c(F)cc(N3CCCC3)cc12 | 6.84 | –
O=c1[nH]cnc2c(Cl)cc(/C=C/c3ccccc3)cc12 | > 200 | –
O=c1[nH]cnc2ccc(N3C[C@H]4CCCC[C@H]4C3)cc12 | – | IC50 [1]: > 200 µM
O=c1[nH]cnc2ccc(/C=C/c3ccc(F)cc3)cc12 | – | IC50 [1]: > 200 µM
O=C(O)c1cc(/C=C/c2ccccc2)cc2c(=O)[nH]cnc12 | 67.2 | –
O=C1CCCc2ccc(N3CCCC3)cc21 | > 200 | –
O=c1[nH]cnc2c([N+](=O)[O-])cc(N3CCCC3)cc12 | > 200 | –
O=c1[nH]cnc2ccc(N3CCc4ccccc4CC3)cc12 | – | IC50 [1]: > 200 µM
O=c1[nH]cnc2ccc(N3CCc4ccccc4C3)cc12 | 1.12 | –
Nc1nc2ccc(N3CCCC3)cc2c(=O)[nH]1 | > 200 | –
O=c1[nH]cnc2ccc(N3CC[C@H]4CCCC[C@@H]4C3)cc12 | – | IC50 [1]: 91.9 µM
O=C(O)c1cccc(-c2oc3cc(O)c(O)cc3c(=O)c2O)c1 | – | Ratio IC50 [3]: 5
O=c1[nH]c(=O)c2cc(N3CCCC3)ccc2[nH]1 | > 200 | –
O=c1[nH]cnc2ccc(C3=Cc4ccccc4C3)cc12 | – | IC50 [1]: > 200 µM
O=c1[nH]cnc2ccc(N3CCCCC3)cc12 | 25.9 | –

Second part, led by results:

IC50 [2] [µM] | Structure (SMILES) | also measured
127 | O=c1[nH]cnc2ccc(/C=C/c3ccncc3)cc12 | –
37.4 | CN(C)c1cccc(-c2cc(O)c3nc[nH]c(=O)c3c2)c1 | –
> 200 | O=c1[nH]cnc2c(Cl)cc(N3CCc4ccccc4CC3)cc12 | –
> 200 | O=c1[nH]cnc2ccc(N3CCCC3)nc12 | –
12.2 | O=c1[nH]cnc2cc(F)c(N3CCCC3)cc12 | –
0.51 | O=c1[nH]cnc2ccc(N3CCCc4ccccc4C3)cc12 | –
22.7 | Nc1ccc(N2CCCC2)cc1C(=O)O | –
75.4 | CN(C)c1ccc2nc[nH]c(=O)c2c1 | –
> 200 | O=C1NCCc2ccc(N3CCCC3)cc21 | –
47.6 | O=c1[nH]cnc2cc(N3CCCC3)c(Br)cc12 | –
1.07 | O=c1[nH]cnc2ccc(N3Cc4cccc(F)c4C3)cc12 | –
0.595 | CC1(C)C[N+](c2ccc3nc[nH]c(=O)c3c2)=Cc2ccccc21 | –
15.3 | O=c1[nH]cnc2ccc(N3CCC(c4ccccc4)CC3)cc12 | –
2.41 | O=c1[nH]cnc2cc([N+](=O)[O-])c(N3Cc4ccccc4C3)cc12 | –
> 200 | CN(C)C1CCN(c2ccc3nc[nH]c(=O)c3c2)CC1 | –
> 200 | Cc1cc(F)ccc1-c1cc(O)c2nc[nH]c(=O)c2c1 | –
> 200 | O=c1[nH]cnc2ccc(N3CCCC3)c(Br)c12 | –
2.25 | O=c1[nH]cnc2c(Cl)cc(N3CCCC3)cc12 | –
71.5 | O=c1[nH]cnc2ccc(NC3CCCCC3)cc12 | –
